Data on three compounds can be found in ChEMBL document CHEMBL1201862, “PubChem BioAssay data set” (2004).

Molecules are shown by their SMILES. Calls of active or inactive are those of the source. Some results are limits rather than exact numbers.

Assay [1] addresses Alkaline phosphatase, placental type (Homo sapiens, UniProt P05187). The assay can be described thus: PLAP enzyme inhibitors, confirmation, biochemical, luminescence (AID 1512). It is filed as functional.
The target of assay [2] is Alkaline phosphatase, tissue-nonspecific isozyme (Homo sapiens, UniProt P05186). The experiment in a line: human TNAP enzyme inhibitors, SAR follow-up, biochemical, luminescent, dose response (AID 1056).
Alkaline phosphatase, tissue-nonspecific isozyme, sequence (P05186 whole entry): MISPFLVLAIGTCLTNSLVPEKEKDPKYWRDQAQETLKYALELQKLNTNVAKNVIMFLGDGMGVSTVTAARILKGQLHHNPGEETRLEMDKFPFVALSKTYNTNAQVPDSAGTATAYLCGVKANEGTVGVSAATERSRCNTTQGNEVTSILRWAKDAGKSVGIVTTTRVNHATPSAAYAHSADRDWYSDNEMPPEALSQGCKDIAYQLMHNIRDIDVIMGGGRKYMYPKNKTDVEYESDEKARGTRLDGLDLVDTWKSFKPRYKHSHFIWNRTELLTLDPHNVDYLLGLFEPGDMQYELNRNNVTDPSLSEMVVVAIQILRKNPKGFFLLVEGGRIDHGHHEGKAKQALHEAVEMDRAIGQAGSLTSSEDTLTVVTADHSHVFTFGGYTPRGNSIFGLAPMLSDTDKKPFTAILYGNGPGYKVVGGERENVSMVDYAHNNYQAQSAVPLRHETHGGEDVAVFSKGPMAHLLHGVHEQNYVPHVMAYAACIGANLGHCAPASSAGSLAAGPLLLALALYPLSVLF
Another assay concerns T-cell. The experiment in a line: inhibitors of CD8+ T cell–vesicle binding, dose response, mouse 2C CD8+ T cells, flow cytometry (AID 485284). It is filed as functional. In general terms: A flow cytometer gives signals particle by particle.
In assay [3] the target is Mitochondrial peptide methionine sulfoxide reductase (Bos taurus, UniProt P54149). It is filed as functional.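 Further: absorbance read-out, biochemical high-throughput dose-response screen for MsrA inhibitors, confirmatory; recombinant bovine MsrA coupled to E. coli TrxB with NADPH and selenocystamine; potency is for inhibitors of MsrA activity on DMSO substrate.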
Mitochondrial peptide methionine sulfoxide reductase, sequence (P54149 whole entry): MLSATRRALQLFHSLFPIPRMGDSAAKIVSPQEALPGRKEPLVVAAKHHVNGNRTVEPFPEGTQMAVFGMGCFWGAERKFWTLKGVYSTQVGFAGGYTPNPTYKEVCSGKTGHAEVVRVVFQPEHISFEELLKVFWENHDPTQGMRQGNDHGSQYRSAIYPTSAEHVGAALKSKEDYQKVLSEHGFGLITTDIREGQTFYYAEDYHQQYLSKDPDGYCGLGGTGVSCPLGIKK
Assay [4] deals with T1, Replicative DNA helicase DnaB (Mycobacterium tuberculosis, UniProt P9WMR3).
T1 sequence (P9WMR3 whole entry): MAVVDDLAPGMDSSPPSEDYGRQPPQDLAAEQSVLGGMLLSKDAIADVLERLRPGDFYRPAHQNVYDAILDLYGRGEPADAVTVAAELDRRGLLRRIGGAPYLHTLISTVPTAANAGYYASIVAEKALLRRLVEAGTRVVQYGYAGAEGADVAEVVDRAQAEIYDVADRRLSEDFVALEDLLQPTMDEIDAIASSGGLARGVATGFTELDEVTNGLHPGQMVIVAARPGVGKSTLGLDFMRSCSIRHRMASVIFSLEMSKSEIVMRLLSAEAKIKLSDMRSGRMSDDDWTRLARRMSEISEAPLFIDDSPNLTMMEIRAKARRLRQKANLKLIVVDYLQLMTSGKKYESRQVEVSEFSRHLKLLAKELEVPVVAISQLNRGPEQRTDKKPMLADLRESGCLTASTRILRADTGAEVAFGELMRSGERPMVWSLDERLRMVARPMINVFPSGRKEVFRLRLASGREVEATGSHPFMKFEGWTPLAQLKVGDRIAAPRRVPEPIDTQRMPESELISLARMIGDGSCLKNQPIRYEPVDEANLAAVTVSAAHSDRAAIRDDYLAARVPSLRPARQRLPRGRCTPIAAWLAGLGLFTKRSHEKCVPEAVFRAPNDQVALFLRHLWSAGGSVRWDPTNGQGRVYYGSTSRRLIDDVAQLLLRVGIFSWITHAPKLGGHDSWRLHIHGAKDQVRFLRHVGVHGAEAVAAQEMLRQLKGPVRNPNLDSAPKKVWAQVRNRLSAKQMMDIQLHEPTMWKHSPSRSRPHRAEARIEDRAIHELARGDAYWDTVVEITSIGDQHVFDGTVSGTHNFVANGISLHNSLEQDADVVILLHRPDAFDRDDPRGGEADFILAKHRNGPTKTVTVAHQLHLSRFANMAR
The assay can be described thus: DnaB intein splicing inhibitors, dose response, biochemical, cell-free fluorescence (AID 449749). The format is functional.

A short description of assay [5]: Intein inhibitors as potential Tuberculosis drugs, a cytotoxicity screen. [Related pubchem assays (depositor defined):AID2221, AID2223, AID434968, AID435010, AID449749, AID449750, AID489010]. The format is functional.
The target in assay [6] is T2, Apoptotic protease-activating factor 1 (Homo sapiens, UniProt O14727).
T2 sequence (O14727 whole entry): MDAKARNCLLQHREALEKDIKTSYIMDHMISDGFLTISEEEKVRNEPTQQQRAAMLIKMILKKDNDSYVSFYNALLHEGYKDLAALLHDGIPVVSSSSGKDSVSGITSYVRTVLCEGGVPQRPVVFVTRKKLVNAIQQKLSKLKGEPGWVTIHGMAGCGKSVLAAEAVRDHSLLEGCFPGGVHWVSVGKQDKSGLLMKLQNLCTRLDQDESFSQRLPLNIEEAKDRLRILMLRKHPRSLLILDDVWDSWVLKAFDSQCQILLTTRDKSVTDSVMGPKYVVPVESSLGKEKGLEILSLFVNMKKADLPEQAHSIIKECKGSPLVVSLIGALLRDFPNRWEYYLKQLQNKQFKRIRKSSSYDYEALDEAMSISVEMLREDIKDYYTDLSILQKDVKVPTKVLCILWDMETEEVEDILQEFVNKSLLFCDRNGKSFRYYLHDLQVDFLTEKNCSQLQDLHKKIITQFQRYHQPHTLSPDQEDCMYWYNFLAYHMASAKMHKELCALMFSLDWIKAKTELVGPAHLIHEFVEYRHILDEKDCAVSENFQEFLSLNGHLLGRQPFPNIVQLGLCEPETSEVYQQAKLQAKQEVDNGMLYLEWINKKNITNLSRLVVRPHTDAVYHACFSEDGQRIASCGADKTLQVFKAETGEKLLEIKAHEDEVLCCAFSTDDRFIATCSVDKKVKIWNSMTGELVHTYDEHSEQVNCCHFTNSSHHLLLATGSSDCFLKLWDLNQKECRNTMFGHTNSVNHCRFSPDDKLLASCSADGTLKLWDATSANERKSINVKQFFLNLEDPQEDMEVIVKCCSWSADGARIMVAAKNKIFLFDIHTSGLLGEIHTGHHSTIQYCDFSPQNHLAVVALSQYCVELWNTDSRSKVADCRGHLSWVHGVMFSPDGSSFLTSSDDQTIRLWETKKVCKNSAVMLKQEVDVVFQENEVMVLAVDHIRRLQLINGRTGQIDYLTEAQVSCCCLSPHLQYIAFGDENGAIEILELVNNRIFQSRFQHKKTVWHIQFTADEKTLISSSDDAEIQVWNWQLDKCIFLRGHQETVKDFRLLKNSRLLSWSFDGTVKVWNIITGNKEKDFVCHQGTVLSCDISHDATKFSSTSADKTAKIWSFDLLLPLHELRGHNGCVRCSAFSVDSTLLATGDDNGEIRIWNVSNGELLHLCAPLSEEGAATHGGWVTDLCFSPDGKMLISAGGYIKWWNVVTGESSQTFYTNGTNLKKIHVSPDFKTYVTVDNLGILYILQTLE
The format is functional.

Another assay deals with INS1. The assay can be described thus: beta cell apoptosis inhibitors, cytokine rescue, dose response, luminescence, retest (AID 449756).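 Further: cell death triggered by IL-1 beta plus TNF-alpha plus IFN-gamma mixture; protective hits raise ATP signal compared with cytokine alone wells.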 It is filed as functional, cell-based. As to conditions: Rattus norvegicus.
The subject of assay [7] is BJ. The experiment in a line: cytotoxicity toward BJ-TERT-LT-ST fibroblasts, dose response, cell-based, RAS-independent, luminescence (AID 1935).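 Further: BJ fibroblasts immortalized with TERT plus LT and ST oncogenes.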 It is filed as functional. The following applies: Homo sapiens.
Assay [8] is described as follows: cytotoxicity toward DRD oncogenic fibroblasts, dose response, cell-based, non-viral oncogenic, luminescence (AID 1934). It is filed as functional. As to conditions: Homo sapiens.
Assay [9] concerns BJ. The assay can be described thus: cells. It is filed as functional, cell-based. As to conditions: Homo sapiens.
The subject of assay [10] is BJ. The experiment in a line: cytotoxicity toward BJ-TERT fibroblasts, dose response, cell-based, RAS-independent, luminescence (AID 1933). It is filed as functional. As to conditions: Homo sapiens.
A short description of assay [11]: inhibitors of firefly luciferase expression or activity, dose response, H4 neuroglioma cells, luminescence (AID 1990). It is filed as functional, cell-based.
A further assay addresses T3, Protein RecA (Mycobacterium tuberculosis, UniProt P9WHJ3).
T3 sequence (P9WHJ3 whole entry): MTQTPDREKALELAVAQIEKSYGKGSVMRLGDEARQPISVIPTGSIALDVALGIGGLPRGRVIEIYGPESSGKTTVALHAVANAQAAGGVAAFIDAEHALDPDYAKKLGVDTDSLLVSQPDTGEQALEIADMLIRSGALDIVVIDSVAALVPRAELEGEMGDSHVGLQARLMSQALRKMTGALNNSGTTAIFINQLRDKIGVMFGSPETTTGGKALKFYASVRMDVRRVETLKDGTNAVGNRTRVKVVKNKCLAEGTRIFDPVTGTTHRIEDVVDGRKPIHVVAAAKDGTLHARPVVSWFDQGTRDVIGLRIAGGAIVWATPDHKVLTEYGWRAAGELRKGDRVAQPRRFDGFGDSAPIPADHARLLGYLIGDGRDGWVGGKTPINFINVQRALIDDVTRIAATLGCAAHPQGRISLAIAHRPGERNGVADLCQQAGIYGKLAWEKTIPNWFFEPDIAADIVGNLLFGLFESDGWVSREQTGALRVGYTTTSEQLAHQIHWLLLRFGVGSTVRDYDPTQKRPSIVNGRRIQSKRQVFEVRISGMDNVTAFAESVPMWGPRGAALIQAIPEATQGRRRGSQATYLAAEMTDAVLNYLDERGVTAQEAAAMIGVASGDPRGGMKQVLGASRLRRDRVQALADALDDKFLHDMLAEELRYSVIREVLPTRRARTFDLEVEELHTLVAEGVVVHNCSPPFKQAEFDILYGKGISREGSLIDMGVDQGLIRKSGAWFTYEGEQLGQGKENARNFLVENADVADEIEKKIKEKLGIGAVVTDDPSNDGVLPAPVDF
The assay can be described thus: Fluorescence Cell-Free Homogeneous Dose Retest to Identify Inhibitors of RecA-Intein Splicing Activity. [Related pubchem assays (depositor defined):AID2097, AID2223, AID489010, AID492950]. The format is functional.

Assay [12] is described as follows: Luminescence Cell-Based Dose Response HTS to Identify Inhibitors of 5'UTR Stem-Loop Driven Prion Protein mRNA Translation in H4 Neuroglioblastoma Cells. [Related pubchem assays: 1827 (Project Summary), 1813 (Primary HTS)]. It is filed as functional.
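Wherever CC50 is given: cells exposed to compound for 72 hours before luminescence readout.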

Alkaline phosphatase, placental type, sequence (P05187 whole entry): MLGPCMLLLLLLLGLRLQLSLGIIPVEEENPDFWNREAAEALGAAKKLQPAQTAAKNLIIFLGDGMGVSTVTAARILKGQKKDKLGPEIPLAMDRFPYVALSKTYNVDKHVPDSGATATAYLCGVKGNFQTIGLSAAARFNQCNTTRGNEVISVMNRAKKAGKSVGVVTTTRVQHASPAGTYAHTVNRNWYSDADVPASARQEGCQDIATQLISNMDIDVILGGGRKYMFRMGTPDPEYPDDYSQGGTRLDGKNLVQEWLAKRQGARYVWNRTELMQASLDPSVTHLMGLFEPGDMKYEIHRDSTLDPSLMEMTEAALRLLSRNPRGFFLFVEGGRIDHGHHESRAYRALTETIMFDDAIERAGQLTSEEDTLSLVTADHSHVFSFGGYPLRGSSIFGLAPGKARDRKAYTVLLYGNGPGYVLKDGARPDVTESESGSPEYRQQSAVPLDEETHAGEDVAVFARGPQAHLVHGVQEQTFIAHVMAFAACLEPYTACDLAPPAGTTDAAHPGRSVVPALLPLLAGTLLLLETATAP

On to `O=C(CNc1ccncc1)c1ccc(O)c(O)c1`, for which the IC50 in assay [1] and in assay [2] was > 100 µM (inactive) throughout.
On to `CCOc1ccccc1NC(=O)c1ccc(F)c(S(=O)(=O)N2CCC3(CC2)OCCO3)c1`, for which the EC50 in the assay on T-cell is 16.4 µM (active).
For `Cc1oc2c(c1C(=O)N1CCOCC1)C(=O)c1ccccc1C2=O`, the results for the IC50 in assay [3] and in assay [6] were 64.3 µM (inactive) and 13.9 µM (active), respectively. For the same compound, the AC50 in assay [4] was 1.41 µM (active); in the assay on INS1, 2.45 µM (active). The 50% cytotoxic concentration (CC50) in assay [5] is 6.26 µM (active). For the same compound, the concentration giving a half-maximal response (EC50) was > 75 µM (inconclusive) with BJ [7]; 10.5 µM (active) in assay [8]; 13.4 µM (active) with BJ [9]; 11.8 µM (active) in the assay with BJ [10]; 8.24 µM (active) in [11]; 506 nM (active) at Protein RecA. Further, in [12], the concentration giving a half-maximal response (EC50) is 8.93 µM (active).

A word on the IC50: it is the concentration needed to halve the response being measured. As usually defined, the EC50 is the concentration giving half of the maximal effect. Usually AC50 stands for the midpoint of the concentration-response curve, whichever way the signal moves. In general, CC50 refers to the concentration that lowers cell viability or growth by half.
